Laboratory results taken from patent US7453006B2, “Inositol derivatives for increasing chloride secretion and inhibiting inflammation” (Inologic, Inc., priority 2000, dated 2008).
Several values for one entry are separate records, joined by “and”; a condition that tells them apart may be missing. Equal values may be shown once. Entries after “also recorded” stand apart in the source; their conditions may differ.

Experiments:
[1] = extracellular concentration of 200 uM; cited from earlier work
[2] = system: T84 cells; test: Colonic Epithelial Cell Assay (Isc across T84 monolayers, Ussing chambers); type: cell-based, human; details: for Isc response to carbachol / Isc response to thapsigargin following carbachol: 400 μM, 30 min preincubation
Procedure: Cl^− secretion in colonic epithelial cells was measured as short circuit current (Isc) across T84 monolayers grown to confluence on Snap-wells (Costar) and mounted in Ussing chambers equipped with voltage clamps (Physiologic Instruments, San Diego). Data was acquired and analyzed using AAcquire and Analyze@ software (Physiologic Instruments). T84 cells (passages 18-48) were maintained as described previously in McRoberts, J. A. et al., “Cyclic AMP and Ca^2+-activated K^+ transport pathway in the apical membrane of a human colonic epithelial cell line,” J. Biol. Chem. 260:14163-14172 (1985). After […] of incubation on Snap-wells, monolayers had formed tight junctions and were preincubated with […] Bt2D-myo-Ins(3,4,5,6)P4/AM for 30-min. prior to mounting. An extracellular concentration of 200 uM corresponds to an intracellular concentration of 4 uM (Vajanaphnich, et al., “Long-term uncoupling of chloride secretion from intracellular calcium levels by Ins(3,4,5,6)P4,” Nature 371:711-714 (1994)). […]

[3] = system: arachidonic acid-induced inflammation in mouse ears; test: arachidonic acid-induced inflammation in mouse ears; type: in vivo; details: for Ear Thickness: 20 nanomoles/ear topical 30 min before arachidonic acid, measured 60 min after arachidonic acid, control 56.5 ± 1.57
Procedure: Arachidonic Acid (Nu-Chek, Elysian, Minn. 56028); Indomethacin (stock=12.5 mg/mL acetone). Prednisolone (Sigma Chem, P6004) 20 mM dissolved in acetone; Animals: Female Balb/c mice (B&K laboratories) and Swiss-Webster hybrid (B& K Laboratory, Kent, Wash.)
The right ear of each mouse was used for the test compound. Unless otherwise indicated each compound was adjusted to 20 mM by dilution into DMSO or DMSO/5% Pluronic F127 as indicated and 1 or 2 microliters were applied to the test ear. Thirty minutes after each compound was applied, 4 mg arachidonic acid was applied (4 μL/ear; 2 μL/side) to both ears of each mouse. Measurements of edema were taken 60 min after the application of arachidonic acid with microcalipers (Oditest, Scientific Supply and Equipment) unless otherwise indicated. The results are shown in FIG. 15 as millimeters×10^−2 measured at the thickest point of each ear. Control measurements were performed on ears that were only treated with arachidonic acid.
Response to prednisolone (20 μL of 20 mM/ear; 10 μl/side) added 3 hrs prior 20′ to arachidonic acid or indomethacin (5 μg/ear) added 30 min prior to test compounds was determined. The results are shown in Table A, where the anti-inflammatory/inflammatory effects of 20 nanomoles/ear of the indicated compounds were tested as described in Methods. Each plus represents a change from control (arachidonic acid alone) of 2.5 mm×10^−2. Effects were compared with those of Indomethacin (400 nmols/ear).
Acute inflammation: Membrane permeant inositol polyphosphate analogs were administered topically and tested for inhibition of inflammatory symptoms induced by arachidonic acid on the ear of Swiss Webster mice.

[4] = system: CF Human Nasal Epithelial (CFHNE) cells; test: Cystic Fibrosis Human Nasal Epithelial Cell Assay (Isc, Ussing chambers); type: cell-based
Procedure: CF Human Nasal Epithelial (CFHNE) Cell Isolation and Proliferation
Nasal Polyps were surgically obtained from a CF patient at Children's Hospital (Seattle, Wash.), transported on ice in a sterile container containing a 1:1 mixture of Dulbecco's modification of minimum essential medium Eagle and Ham's F-12 nutrient medium (DMEM/F-12) (Irvine Scientific, Santa Ana, Calif.) supplemented with 100 U/mL penicillin, 0.1 mg/mL streptomycin, 10 mM HEPES, and 2 mM L-glutamine. The tissue samples were aseptically removed from the transport medium and washed (repeated 5 times) by suspending in 40 mL of Joklik's modification of minimum essential medium Eagle (JMEM) at 4° C., and centrifuging at 500 rpm. The supernatant was aspirated and discarded. The tissue was then transferred to JMEM containing 200 U/mL penicillin, 0.2 mg/mL streptomycin, 0.1 mg/mL gentamycin sulfate (Clonetics, San Diego, Calif.), and 0.1 μg/mL amphotericin-B (Clonetics), and 0.1% Protease, washed an additional two times, suspended in […] in a 10 cm tissue culture dish, and incubated at 4° C. for 24 hours. The tissue samples were then gently triturated, the connective tissue aseptically removed, and the remaining cell suspension centrifuged at 1000 rpm. The supernatant was aspirated and the pellet was resuspended in 10 mL proliferation media, consisting of Keratinocyte-Serum Free Medium (KSFM) (Gibco-BRL, Grand Island, N.Y.) containing 5 ng/ml EGF (Gibco), 50 μg/mL BPE (Gibco), 5 μg/mL insulin, 5 μg/mL transferrin, 5 μg/ml sodium selenite, 10 nM 3,3′,5-triiodo-L-thyronine, 200 nM hydrocortisone, 100 U/mL penicillin, 0.1 mg/mL streptomycin, and 2 mM L-glutamine. The cell suspension was transferred to 2.10 cm tissue culture dishes coated with 3 μg/cm^2 rat-tail collagen (Type I) (Becton-Dickinson, Bedford, Mass.), incubated at 37° C. in an humidified atmosphere of 5% CO2 and 95% air. The cells were allowed to grow for 6 days (˜70% confluence) with the media being replaced with fresh media every other day. The cells were then trypsinized using 0.025% trypsin-EDTA for 5 min. The cell suspension was collected, the trypsin deactivated with 10% Fetal Bovine Serum, and centrifuged at 1000 rpm for 5 min. The cells were then counted using an hemocytometer with a yield of 3×10^6 cells per dish. The supernatant was aspirated and the cells were resuspended in KSFM and plated at a density of 10^4 cells/cm^2.
CFHNE Cell Ussing Chamber Preparation
The CFHNE cells were prepared for Ussing Chamber studies using Snapwell permeable supports (0.4 μm pore size) (Corning Costar, Cambridge, Mass.) coated with 3 μg/cm^2 rat-tail collagen (type 1). Cells were plated at 9×10^3 cells/cm^2 in KSFM. After 2 days, an air-liquid interface (ALI) was initiated in DMEM/F-12 containing: 2% Fetal Clone III (Hyclone, Logan, Utah), 2.5 μg/mL insulin, 2.5 μg/mL transferrin, 2.5 μg/mL sodium selenite, 20 nM hydrocortisone, 1.5 μM epinephrine, 50 μg/mL BPE, 1 nM 3,3′,5-triiodo-L-thyronine, 3.3 nM All-trans retinoic acid, 250 nM ethanolamine, 250 nM O-phosporylethanolamine, 100 U/mL penicillin, 0.1 mg/ml streptomycin, and 2 mM L-glutamine. The CFHNE monolayers reached maximal resistance (˜200 Ω/cm^2) 5-7 days after initiation of ALI. All media/reagents, unless otherwise specified, were supplied by Sigma Chemical Co., St. Louis, Mo.

[5] = macroscopic negative effects / side effects after ip and iv injection; type: in vivo, mouse; details: several weeks after treatment
[6] = preincubation with 200 μM, CFHNE monolayers

For `CCCC(=O)OC1C(OC(=O)CCC)C(OP(=O)(OCOC(C)=O)OCOC(C)=O)C(OP(=O)(OCOC(C)=O)OCOC(C)=O)C(OP(=O)(OCOC(C)=O)OCOC(C)=O)C1OP(=O)(OCOC(C)=O)OCOC(C)=O` (centres unmarked) [Bt2D-myo-Ins(3,4,5,6)P4/AM], which intracellular concentration [1] is on record?
The intracellular concentration was 4 µM.

Which results are given for `CCCC12OC(C)(C)OC1C(OP(=O)(OCOC(C)=O)OCOC(C)=O)C(OP(=O)(OCOC(C)=O)OCOC(C)=O)C(OP(=O)(OCOC(C)=O)OCOC(C)=O)C2OP(=O)(OCOC(C)=O)OCOC(C)=O` (racemic) [Compound B, rac-1,2-O-isopropylidene-2-C-propyl-myo-inositol 3,4,5,6-tetrakisphosphate-octakis(acetoxymethyl) ester]?
Isc response to carbachol ([2]; T84): prolongs; also recorded: prolonged increase in Isc response; Isc response to thapsigargin following carbachol ([2]; T84): overcomes the inhibitory effect of carbachol pretreatment; also recorded: prolonged increase in Isc response; Isc, acute effect ([2]; applied acutely to the apical surface of T84 monolayers, one monolayer): triggers an increase in Isc; also recorded: large and prolonged increase in Isc; Ear Thickness [3]: 56.1 ± 2.1 mm × 10^−2; negative component of the ATP effect on Isc ([4]; FIG. 11 legend: preincubation at 400 μM, CFHNE, average of duplicates): reverse the negative component of the ATP effect on Isc; negative phase of Isc following ATP [4, 6]: totally reversed the negative phase, instead causing a long term increase in Isc; transient increase in Isc following ATP [4, 6]: inhibited

Which “effectiveness by route of application” value ([3]; topically, intraperitoneally and orally) does the source give for “D-1-O-octyl-2-O-butyryl-myo-inositol 1,4,5,6-tetrakisphosphate-octakis-(propionoxymethyl)ester [INO-E3]” here?
Its value is “effective when applied topically, intraperitoneally and orally”.

What about the macroscopic negative effects ([5]; ip injections up to 50 μg/animal) of the same molecule?
The macroscopic negative effects was “No macroscopic negative effects”.

What about the macroscopic negative effects ([5]; iv injections of 20 μg/animal) of the same molecule?
Its macroscopic negative effects is “No macroscopic negative effects”.

Which “basal Isc” value ([2]; 200 μM, acute treatment, T84) does the source give for `CCCC(=O)OC1C(OP(=O)(OCOC(C)=O)OCOC(C)=O)C(OP(=O)(OCOC(C)=O)OCOC(C)=O)C(OP(=O)(OCOC(C)=O)OCOC(C)=O)C(OP(=O)(OCOC(C)=O)OCOC(C)=O)C1(CCC)OP(=O)(OCOC(C)=O)OCOC(C)=O` (racemic) [Compound D, rac-1-O-butyryl-2-C-propyl-myo-inositol 2,3,4,5,6-pentakisphosphate-dekakis(acetoxymethyl) ester] here?
Its value is “small increase in basal Isc; also recorded: small acute effect increasing basal Isc”.

And the “subsequent carbachol-stimulated Isc” value ([2]; 200 μM, acute treatment, T84)?
The value was “little effect”.

And the “Ear Thickness” value [3]?
Its value is 44.0 ± 1.4 mm × 10^−2 and 44.2 ± 6.5 mm × 10^−2.

With `CCCOC1C(OP(=O)(OCOC(C)=O)OCOC(C)=O)C(OP(=O)(OCOC(C)=O)OCOC(C)=O)C(OP(=O)(OCOC(C)=O)OCOC(C)=O)C(OP(=O)(OCOC(C)=O)OCOC(C)=O)C1(CCC)OC(=O)CCC` (racemic) [Compound A, rac-2-O-butyryl-2-C-propyl-1-O-propyl-myo-inositol 3,4,5,6-tetrakisphosphate-octakis(acetoxymethyl) ester] as the molecule, how does the “Isc response to carbachol” value ([2]; T84) read?
The value was “did not affect”.

What about the “Isc response to thapsigargin following carbachol” value ([2]; T84) of the same molecule?
Its value is “partially reversed the inhibition of thapsigargin induced chloride secretion; also recorded: partially restores the Isc response to thapsigargin following carbachol”.

What about the “Ear Thickness” value [3] of the same molecule?
Its value is 52.5 ± 5.5 mm × 10^−2.

And the “Isc response to subsequent stimulation with ATP” value ([4]; 95 μM, CFHNE)?
Its value is “appeared to prolong the response to subsequent stimulation with ATP; also recorded: prolonged increase in Isc following ATP addition”.

And the “Isc, direct effect” value ([4]; 95 μM, CFHNE)?
Its value is “little direct effect”.

And the “Isc, direct effect” value ([4]; 200 μM, added basolaterally, CFHNE (passage 3))?
Its value is “prolonged increase in Isc comparable in amplitude to that stimulated with ATP”.
